Values of other authors, collected in patent US12629369B2, “Pharmaceutical compositions of nilotinib” (AZURITY PHARMACEUTICALS, INC., priority 2019, dated 2026).
Where a name gives a salt, the structure may show the parent alone.

What was measured:
[1] = taken with or after meals, particularly high fat meals (Castagnetti et al 2008)

## Cc1cn(-c2cc(NC(=O)c3ccc(C)c(Nc4nccc(-c5cccnc5)n4)c3)cc(C(F)(F)F)c2)cn1 [Nilotinib hydrochloride]
other
  water solubility: poorly water soluble

## Cc1cn(-c2cc(NC(=O)c3ccc(C)c(Nc4nccc(-c5cccnc5)n4)c3)cc(C(F)(F)F)c2)cn1 [Nilotinib, 4-methyl-N-[3-(4-methyl-1H-imidazol-1-yl)-5-(trifluoromethyl)phenyl]-3-[[4-(3-pyridinyl)-2-pyrimidinyl]amino]-benzamide]
[1]
  increase of extent of absorption (area under the plasma profile curve): 82%
  increase of rate of absorption (Cmax): 112%
25° C., pH 4.5 and higher
  solubility in aqueous solutions: practically insoluble
